# Measured values reported in patent US11109593B2, “Isoxazolin-5-one derivative and herbicide containing same as active ingredient” (HOKKO CHEMICAL INDUSTRY CO., LTD., priority 2017, dated 2021).
# System: Echinochloa crus-galli
# Assay: Test Example 1: herbicidal effect test by treatment of rice paddy soil (immediately after seeding)
# Format: in vivo
# Settings: 120 g/10a active ingredient, dry weight vs untreated area, 14 days after treatment
# Summary of the method: (§1)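 Flooded paddy pot test in a glass greenhouse: emulsion diluted in water, dropped at 120 g a.i. per 10 ares just after sowing, water depth kept about 3 cm. Dry-weight reduction relative to untreated plants is scored at 14 days.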
row,SMILES,Herbicidal rate (%) Echinochloa crus-galli [%]
1,CSCCn1oc(=O)c(Cc2ccccc2N(C(=O)OCC(C)C)S(=O)(=O)C(F)(F)F)c1C [Compound 1-676],90
2,Cc1c(Cc2ccccc2N(S(C)(=O)=O)S(=O)(=O)C(F)(F)F)c(=O)on1Cc1ccc(F)cc1 [Compound 1-906],100

# System: Scirpus juncoides
# Assay: as above
# Format: in vivo
# Settings: 120 g/10a active ingredient, dry weight vs untreated area, 14 days after treatment
# Summary of the method: as §1
row,SMILES,Herbicidal rate (%) Scirpus juncoides [%]
1,CSCCn1oc(=O)c(Cc2ccccc2N(C(=O)OCC(C)C)S(=O)(=O)C(F)(F)F)c1C [Compound 1-676],90
2,Cc1c(Cc2ccccc2N(S(C)(=O)=O)S(=O)(=O)C(F)(F)F)c(=O)on1Cc1ccc(F)cc1 [Compound 1-906],100

# System: broad leaf weeds (Lindernia pyxidaria and Monochoria vaginalis)
# Assay: as above
# Format: in vivo
# Settings: Lindernia pyxidaria, 120 g/10a active ingredient, dry weight vs untreated area, 14 days after treatment
# Summary of the method: as §1
row,SMILES,Herbicidal rate (%) Lindernia pyxidaria [%]
1,CSCCn1oc(=O)c(Cc2ccccc2N(C(=O)OCC(C)C)S(=O)(=O)C(F)(F)F)c1C [Compound 1-676],90
2,Cc1c(Cc2ccccc2N(S(C)(=O)=O)S(=O)(=O)C(F)(F)F)c(=O)on1Cc1ccc(F)cc1 [Compound 1-906],100

# Same assay, conditions: Monochoria vaginalis, 120 g/10a active ingredient, dry weight vs untreated area, 14 days after treatment
row,SMILES,Herbicidal rate (%) Monochoria vaginalis [%]
1,CSCCn1oc(=O)c(Cc2ccccc2N(C(=O)OCC(C)C)S(=O)(=O)C(F)(F)F)c1C [Compound 1-676],90
2,Cc1c(Cc2ccccc2N(S(C)(=O)=O)S(=O)(=O)C(F)(F)F)c(=O)on1Cc1ccc(F)cc1 [Compound 1-906],100

# System: Echinochloa crus-galli
# Assay: Test Example 2: herbicidal effect test by treatment during growing period in paddy rice cultivation (seven days after seeding)
# Format: in vivo
# Settings: 120 g/10a active ingredient, assessed 14 days after treatment, dry weight vs untreated area
# Summary of the method: (§2)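 Greenhouse flooded-pot test, seeds sown in puddled paddy soil; emulsion applied into water 7 d after seeding, 120 g a.i./10 a. Dry-weight-based herbicidal rate at 14 d, n=2.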
row,SMILES,Herbicidal rate (%) Echinochloa crus-galli [%]
1,CSCCn1oc(=O)c(Cc2ccccc2N(C(=O)OCC(C)C)S(=O)(=O)C(F)(F)F)c1C [Compound 1-676],90
2,Cc1c(Cc2ccccc2N(S(C)(=O)=O)S(=O)(=O)C(F)(F)F)c(=O)on1Cc1ccc(F)cc1 [Compound 1-906],90

# System: Scirpus juncoides
# Assay: as above
# Format: in vivo
# Settings: 120 g/10a active ingredient, assessed 14 days after treatment, dry weight vs untreated area
# Summary of the method: as §2
row,SMILES,Herbicidal rate (%) Scirpus juncoides [%]
1,CSCCn1oc(=O)c(Cc2ccccc2N(C(=O)OCC(C)C)S(=O)(=O)C(F)(F)F)c1C [Compound 1-676],90
2,Cc1c(Cc2ccccc2N(S(C)(=O)=O)S(=O)(=O)C(F)(F)F)c(=O)on1Cc1ccc(F)cc1 [Compound 1-906],100

# System: broad leaf weeds (Lindernia pyxidaria and Monochoria vaginalis)
# Assay: as above
# Format: in vivo
# Settings: Lindernia pyxidaria, 120 g/10a active ingredient, assessed 14 days after treatment, dry weight vs untreated area
# Summary of the method: as §2
row,SMILES,Herbicidal rate (%) Lindernia pyxidaria [%]
1,CSCCn1oc(=O)c(Cc2ccccc2N(C(=O)OCC(C)C)S(=O)(=O)C(F)(F)F)c1C [Compound 1-676],90
2,Cc1c(Cc2ccccc2N(S(C)(=O)=O)S(=O)(=O)C(F)(F)F)c(=O)on1Cc1ccc(F)cc1 [Compound 1-906],100

# Same assay, conditions: Monochoria vaginalis, 120 g/10a active ingredient, assessed 14 days after treatment, dry weight vs untreated area
row,SMILES,Herbicidal rate (%) Monochoria vaginalis [%]
1,CSCCn1oc(=O)c(Cc2ccccc2N(C(=O)OCC(C)C)S(=O)(=O)C(F)(F)F)c1C [Compound 1-676],90
2,Cc1c(Cc2ccccc2N(S(C)(=O)=O)S(=O)(=O)C(F)(F)F)c(=O)on1Cc1ccc(F)cc1 [Compound 1-906],100

# System: Amaranthus viridis
# Assay: Test Example 3: herbicidal effect test by treatment of dry field farming soil (one day after seeding)
# Format: in vivo
# Settings: 120 g/10a active ingredient, evaluated 14 days after treatment
# Summary of the method: (§3)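 Compound emulsions are sprayed on the soil surface one day after sowing (120 g a.i. per 10 ares) before weeds emerge. Effect is expressed as percent dry-weight reduction versus untreated controls 14 days post-treatment.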
row,SMILES,"herbicidal rate, Amaranthus viridis [%]"
1,CSCCn1oc(=O)c(Cc2ccccc2N(C(=O)OCC(C)C)S(=O)(=O)C(F)(F)F)c1C [Compound 1-676],90
2,Cc1c(Cc2ccccc2N(S(C)(=O)=O)S(=O)(=O)C(F)(F)F)c(=O)on1Cc1ccc(F)cc1 [Compound 1-906],50

# System: Chenopodium album
# Assay: as above
# Format: in vivo
# Settings: 120 g/10a active ingredient, evaluated 14 days after treatment
# Summary of the method: as §3
row,SMILES,"herbicidal rate, Chenopodium album [%]"
1,CSCCn1oc(=O)c(Cc2ccccc2N(C(=O)OCC(C)C)S(=O)(=O)C(F)(F)F)c1C [Compound 1-676],90
2,Cc1c(Cc2ccccc2N(S(C)(=O)=O)S(=O)(=O)C(F)(F)F)c(=O)on1Cc1ccc(F)cc1 [Compound 1-906],70

# System: Echinochloa crus-galli
# Assay: as above
# Format: in vivo
# Settings: 120 g/10a active ingredient, evaluated 14 days after treatment
# Summary of the method: as §3
row,SMILES,"herbicidal rate, Echinochloa crus-galli [%]"
1,CSCCn1oc(=O)c(Cc2ccccc2N(C(=O)OCC(C)C)S(=O)(=O)C(F)(F)F)c1C [Compound 1-676],90
2,Cc1c(Cc2ccccc2N(S(C)(=O)=O)S(=O)(=O)C(F)(F)F)c(=O)on1Cc1ccc(F)cc1 [Compound 1-906],100

# System: southern crabgrass
# Assay: as above
# Format: in vivo
# Settings: 120 g/10a active ingredient, evaluated 14 days after treatment
# Summary of the method: as §3
row,SMILES,"herbicidal rate, southern crabgrass [%]"
1,CSCCn1oc(=O)c(Cc2ccccc2N(C(=O)OCC(C)C)S(=O)(=O)C(F)(F)F)c1C [Compound 1-676],90
2,Cc1c(Cc2ccccc2N(S(C)(=O)=O)S(=O)(=O)C(F)(F)F)c(=O)on1Cc1ccc(F)cc1 [Compound 1-906],90

# System: Amaranthus viridis
# Assay: Test Example 4: herbicidal effect test by treatment of leave and stem in dry field farming (seven days after seeding)
# Format: in vivo
# Settings: 120 g/10a active ingredient; emulsion sprayed seven days after seeding; evaluated 14 days after treatment
# Summary of the method: (§4)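 Twenty seeds per species were mixed into the top 1 cm of alluvial soil in 36 cm^2 pots; emulsions were sprayed seven days after seeding at 100 L per 10 ares (120 g active ingredient per 10 ares). Herbicidal rate (%) = {1 − treated/untreated mean dry weight} × 100, 14 days after treatment, duplicate.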
row,SMILES,"herbicidal effect (herbicidal rate), Amaranthus viridis [%]"
1,CSCCn1oc(=O)c(Cc2ccccc2N(C(=O)OCC(C)C)S(=O)(=O)C(F)(F)F)c1C [Compound 1-676],40
2,Cc1c(Cc2ccccc2N(S(C)(=O)=O)S(=O)(=O)C(F)(F)F)c(=O)on1Cc1ccc(F)cc1 [Compound 1-906],100

# System: Chenopodium album
# Assay: as above
# Format: in vivo
# Settings: 120 g/10a active ingredient; emulsion sprayed seven days after seeding; evaluated 14 days after treatment
# Summary of the method: as §4
row,SMILES,"herbicidal effect (herbicidal rate), Chenopodium album [%]"
1,CSCCn1oc(=O)c(Cc2ccccc2N(C(=O)OCC(C)C)S(=O)(=O)C(F)(F)F)c1C [Compound 1-676],40
2,Cc1c(Cc2ccccc2N(S(C)(=O)=O)S(=O)(=O)C(F)(F)F)c(=O)on1Cc1ccc(F)cc1 [Compound 1-906],50

# System: Echinochloa crus-galli
# Assay: as above
# Format: in vivo
# Settings: 120 g/10a active ingredient; emulsion sprayed seven days after seeding; evaluated 14 days after treatment
# Summary of the method: as §4
row,SMILES,"herbicidal effect (herbicidal rate), Echinochloa crus-galli [%]"
1,CSCCn1oc(=O)c(Cc2ccccc2N(C(=O)OCC(C)C)S(=O)(=O)C(F)(F)F)c1C [Compound 1-676],90
2,Cc1c(Cc2ccccc2N(S(C)(=O)=O)S(=O)(=O)C(F)(F)F)c(=O)on1Cc1ccc(F)cc1 [Compound 1-906],90

# System: southern crabgrass
# Assay: as above
# Format: in vivo
# Settings: 120 g/10a active ingredient; emulsion sprayed seven days after seeding; evaluated 14 days after treatment
# Summary of the method: as §4
row,SMILES,"herbicidal effect (herbicidal rate), southern crabgrass [%]"
1,CSCCn1oc(=O)c(Cc2ccccc2N(C(=O)OCC(C)C)S(=O)(=O)C(F)(F)F)c1C [Compound 1-676],90
2,Cc1c(Cc2ccccc2N(S(C)(=O)=O)S(=O)(=O)C(F)(F)F)c(=O)on1Cc1ccc(F)cc1 [Compound 1-906],50
